From ChEMBL document CHEMBL2069231, “Combining pharmacophore, docking and substructure search approaches to identify and optimize novel B-RafV600E inhibitors” (Bioorg Med Chem Lett, 2012)

Columns and labels:
[1] = tested on: Serine/threonine-protein kinase B-raf (Homo sapiens), P15056 [V600E]; assay: Inhibition of BRAF V600E mutant at 1 uM by ELISA
[2] = tested on: Serine/threonine-protein kinase B-raf (Homo sapiens), P15056 [V600E]; assay: Inhibition of BRAF V600E mutant at 10 uM by ELISA
[3] = biological target: Serine/threonine-protein kinase B-raf (Homo sapiens, UniProt P15056, V600E); assay: Inhibition of BRAF V600E mutant by ELISA
Serine/threonine-protein kinase B-raf, sequence (P15056 2-766 V600E limits assumed): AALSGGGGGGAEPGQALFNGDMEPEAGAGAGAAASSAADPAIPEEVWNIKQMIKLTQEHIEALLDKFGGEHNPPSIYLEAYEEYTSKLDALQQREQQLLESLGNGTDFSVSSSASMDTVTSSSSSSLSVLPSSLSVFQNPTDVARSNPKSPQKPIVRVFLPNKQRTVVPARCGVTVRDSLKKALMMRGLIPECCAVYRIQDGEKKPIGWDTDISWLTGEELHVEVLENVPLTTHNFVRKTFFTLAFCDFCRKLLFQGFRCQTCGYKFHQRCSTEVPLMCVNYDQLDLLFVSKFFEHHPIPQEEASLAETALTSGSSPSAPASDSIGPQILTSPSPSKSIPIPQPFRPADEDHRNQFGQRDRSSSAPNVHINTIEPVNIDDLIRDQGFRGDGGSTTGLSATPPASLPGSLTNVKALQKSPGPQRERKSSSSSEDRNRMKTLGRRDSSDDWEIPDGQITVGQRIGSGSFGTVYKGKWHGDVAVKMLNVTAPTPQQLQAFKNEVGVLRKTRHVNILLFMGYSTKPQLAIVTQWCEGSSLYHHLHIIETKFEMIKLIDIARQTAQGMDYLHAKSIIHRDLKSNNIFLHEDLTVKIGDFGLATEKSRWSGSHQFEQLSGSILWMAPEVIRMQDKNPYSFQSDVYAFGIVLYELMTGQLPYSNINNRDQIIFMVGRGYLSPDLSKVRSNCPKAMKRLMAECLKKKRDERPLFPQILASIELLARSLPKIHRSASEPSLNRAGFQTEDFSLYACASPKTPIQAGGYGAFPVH

Serine/threonine-protein kinase B-raf (Homo sapiens), P15056 [V600E], sequence (P15056 whole entry V600E): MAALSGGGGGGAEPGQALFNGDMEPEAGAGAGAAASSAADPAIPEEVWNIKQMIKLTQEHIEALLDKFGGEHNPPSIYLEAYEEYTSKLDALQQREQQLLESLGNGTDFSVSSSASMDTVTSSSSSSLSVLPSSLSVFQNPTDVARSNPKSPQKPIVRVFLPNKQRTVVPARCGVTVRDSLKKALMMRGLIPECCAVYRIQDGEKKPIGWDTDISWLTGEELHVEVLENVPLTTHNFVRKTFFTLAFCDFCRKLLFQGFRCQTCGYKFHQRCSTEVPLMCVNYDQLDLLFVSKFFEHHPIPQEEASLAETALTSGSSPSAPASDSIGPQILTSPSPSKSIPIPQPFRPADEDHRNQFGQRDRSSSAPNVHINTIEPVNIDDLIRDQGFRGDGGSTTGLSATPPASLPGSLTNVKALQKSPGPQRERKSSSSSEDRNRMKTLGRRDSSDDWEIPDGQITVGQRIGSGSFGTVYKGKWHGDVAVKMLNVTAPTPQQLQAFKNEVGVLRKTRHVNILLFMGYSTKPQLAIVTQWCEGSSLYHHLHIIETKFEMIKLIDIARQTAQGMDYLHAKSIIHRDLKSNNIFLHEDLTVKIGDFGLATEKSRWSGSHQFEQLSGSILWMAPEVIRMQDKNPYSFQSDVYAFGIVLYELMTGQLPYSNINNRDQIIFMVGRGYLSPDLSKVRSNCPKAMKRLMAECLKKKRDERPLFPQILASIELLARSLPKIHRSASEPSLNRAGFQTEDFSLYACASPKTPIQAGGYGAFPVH

| Structure (SMILES) | inhibition [1] | inhibition [2] | IC50 [3] |
| --- | --- | --- | --- |
| Cc1ccc(Cl)cc1-c1ccc(C=C2C(=O)NC(=S)NC2=O)o1 | 54% | 75% | – |
| COc1ccc(C=C2C(=O)NC(=S)NC2=O)cc1OC(=O)c1ccc(C)cc1 | < 5% | 38% | – |
| Cc1ccc(N2C(=O)/C(=C\c3ccc(-c4cccc(C(=O)O)c4)o3)C(=O)NC2=S)cc1 | 33% | 98% | 4020 nM |
| COC(=O)c1cc(Br)ccc1-c1ccc(C=C2C(=O)NC(=S)NC2=O)o1 | 61% | 86% | – |
| O=C1NC(=S)N(c2ccc(Br)cc2)C(=O)/C1=C\c1ccc(-c2ccccc2C(=O)O)o1 | 32% | 100% | 3450 nM |
| O=C1NC(=S)N(c2ccc(Br)cc2)C(=O)/C1=C\c1ccc(-c2ccc(C(=O)O)c(Cl)c2)o1 | 28% | 89% | 4750 nM |
| COc1ccc(C=C2C(=O)NC(=S)NC2=O)cc1OCc1ccc(Br)cc1 | 12% | 87% | – |
| CCOc1cc(C=C2C(=O)NC(=S)NC2=O)ccc1O | 15% | 68% | – |
| COc1cc(C=C2C(=O)NC(=S)NC2=O)ccc1OC(F)F | 14% | 17% | – |
| COc1cccc(N2C(=O)/C(=C\c3ccc(CN(CCC#N)S(C)(=O)=O)o3)C(=O)NC2=S)c1 | 32% | 74% | 1840 nM |
| Cc1cccc(N2C(=O)/C(=C\c3ccc(CN(CCC#N)S(C)(=O)=O)o3)C(=O)NC2=S)c1 | 55% | 84% | 500 nM |
| CCOc1ccc(N2C(=O)/C(=C\c3ccc(CN(CCC#N)S(C)(=O)=O)o3)C(=O)NC2=S)cc1 | 43% | 91% | 1140 nM |
| Cc1cccc(C)c1OCCOc1ccc(C=C2C(=O)NC(=S)NC2=O)cc1 | 42% | 95% | – |
| COc1ccc(C=C2C(=O)NC(=S)NC2=O)cc1OC(=O)c1cccc(Cl)c1 | 9% | 88% | – |
| CS(=O)(=O)N(CCC#N)Cc1ccc(/C=C2/C(=O)NC(=S)N(c3ccc(Cl)c(Cl)c3)C2=O)o1 | 60% | 97% | 820 nM |
| O=C1NC(=S)N(c2ccc(Br)cc2)C(=O)/C1=C\c1ccc(-c2cccc(C(=O)O)c2)o1 | 43% | 100% | 1800 nM |
| O=C1NC(=S)NC(=O)C1=Cc1ccc(OCc2ccccc2)c(Cl)c1 | 31% | 91% | – |
| Cc1ccc([N+](=O)[O-])cc1-c1ccc(C=C2C(=O)NC(=S)NC2=O)o1 | 51% | 57% | – |
| CCOC(=O)c1ccccc1-c1ccc(/C=C2/C(=O)NC(=S)N(c3ccc(C)cc3)C2=O)o1 | 56% | 88% | 1020 nM |
| CS(=O)(=O)N(CCC#N)Cc1ccc(/C=C2/C(=O)NC(=S)N(c3ccc(Br)cc3)C2=O)o1 | 88% | 96% | 440 nM |
| Cc1ccc(N2C(=O)/C(=C\c3ccc(CN(CCC#N)S(C)(=O)=O)o3)C(=O)NC2=S)cc1Cl | 68% | 99% | 310 nM |
| O=C1NC(=S)NC(=O)C1=Cc1ccc(OCC(=O)N2CCCC2)cc1 | 9% | 52% | – |
| N#Cc1ccccc1-c1ccc(C=C2C(=O)NC(=S)NC2=O)o1 | 60% | 93% | 740 nM |

| Structure (SMILES) | inhibition [1] | inhibition [2] | IC50 [3] |
| --- | --- | --- | --- |
| O=C1NC(=S)N(c2ccc(Br)cc2)C(=O)/C1=C\c1ccc(-c2ccc(C(=O)O)cc2)o1 | 38% | 97% | 2230 nM |
| O=C1NC(=S)NC(=O)C1=Cc1ccc(-c2ccc([N+](=O)[O-])cc2)o1 | 59% | 91% | 730 nM |
| Cc1ccc(N2C(=O)/C(=C\c3ccc(CN(CCC#N)S(C)(=O)=O)o3)C(=O)NC2=S)cc1 | 48% | 99% | 970 nM |
| CC(C)COC(=O)c1ccc(-c2ccc(C=C3C(=O)NC(=S)NC3=O)o2)cc1 | 31% | 37% | – |
| O=C1NC(=S)NC(=O)C1=Cc1ccc(Oc2ccc([N+](=O)[O-])cn2)cc1 | < 5% | 41% | – |
| Cc1ccc(N2C(=O)/C(=C\c3ccc(-c4ccc(C(=O)O)cc4)o3)C(=O)NC2=S)cc1 | 35% | 97% | 1600 nM |
| COc1cc(C=C2C(=O)NC(=S)NC2=O)ccc1OCCC(C)C | 21% | 81% | – |
| Cc1ccc(N2C(=O)/C(=C\c3ccc(-c4ccc(F)cc4)o3)C(=O)NC2=S)cc1 | 13% | 74% | 4110 nM |
| Cc1ccc(N2C(=O)/C(=C\c3ccc(-c4ccc(Cl)c(C(=O)O)c4)o3)C(=O)NC2=S)cc1 | 5% | 71% | – |
| COc1cc(C=C2C(=O)NC(=S)NC2=O)ccc1OCCO | < 5% | 34% | – |
| COc1cc(C=C2C(=O)NC(=S)NC2=O)ccc1OC(=O)c1cccc(F)c1 | < 5% | 28% | – |
| Cc1c(Cl)cccc1N1C(=O)/C(=C\c2ccc(-c3ccc(C(=O)O)cc3)o2)C(=O)NC1=S | 38% | 100% | 2490 nM |
| CCN(C)c1ccc(-c2ccc(C=C3C(=O)NC(=S)NC3=O)cc2)cc1 | < 5% | < 5% | – |
| COc1ccc(C=C2C(=O)NC(=S)NC2=O)cc1OC(=O)c1ccccc1 | 46% | 77% | 4010 nM |
| Cc1ccc(N2C(=O)/C(=C\c3ccc(-c4ccc(C(=O)O)c(Cl)c4)o3)C(=O)NC2=S)cc1 | 28% | 99% | 3240 nM |
| CCOc1ccc(C=C2C(=O)NC(=S)NC2=O)cc1Cl | 12% | 71% | – |
| O=C1NC(=S)NC(=O)C1=Cc1ccc(-c2ccccc2[N+](=O)[O-])o1 | 55% | 93% | 670 nM |
| CCOc1cc(C=C2C(=O)NC(=S)NC2=O)ccc1OCC(=O)Nc1cccc(C)c1 | 23% | 81% | – |
| CCCS(=O)(=O)Nc1ccc(F)c(C(=O)c2c[nH]c3ncc(-c4ccc(Cl)cc4)cc23)c1F | 72% | 92% | – |
| O=C1NC(=S)NC(=O)C1=Cc1cccc(OC(=O)c2cccc(F)c2)c1 | 17% | 19% | – |
| O=C1NC(=S)N(c2cccc(Cl)c2Cl)C(=O)/C1=C\c1ccc(-c2ccc(C(=O)O)cc2)o1 | 46% | 100% | 1540 nM |
| O=C1NC(=S)NC(=O)C1=Cc1ccc(-c2cccc([N+](=O)[O-])c2)o1 | 48% | 85% | 830 nM |
| COC(=O)c1ccccc1-c1ccc(/C=C2/C(=O)NC(=S)N(c3ccc(C)cc3)C2=O)o1 | 37% | 88% | 1650 nM |
